Source: patent US5594032A, “Amelioration of human erectile dysfunction by treatment with iNOS, inducers of iNOS or iNOS cDNA” (priority 1994, dated 1997)

Legend:
penile NOS = assay: NOS activity in penile cytosol, (3-H) L-arginine to (3-H) citrulline conversion; assay type: biochemical, rat; conditions: cytosol of inducer-treated rats
Procedure: Six adult rats were implanted with 100 ul pumps for 3 days, and then the pumps were replaced by similar ones with fresh solution as indicated in Example 2. Three animals had the pumps containing the inducer mix and three had saline as a control. At the end of the experiment the animals were anesthetized as indicated above and the penis (including the bulb), liver, and in some animals the cerebellum were surgically removed. The penile head and skin were excised and the organs were stored under liquid nitrogen.
NOS activity was determined from tissue homogenates from two treated and two control rats, not subjected to EFS in order to avoid the interference with residual L-NAME from the in vivo experiments and EFS-induced changes in NOS activity. […] After eliminating the residual (3-H)L-arginine through the resin, (3-H) citrulline was counted in the trichloroacetic acid ether-extracted supernatant. All values were corrected by the radioactivity eluted in time zero incubations.

cNOS, iNOS = conditions: cited from earlier work
[1] = test system: rat penis smooth muscle cells (RPSMC); assay: Nitrite accumulation in medium of rat penis smooth muscle cell cultures (Greiss reagent); assay type: cell-based
Procedure: Primary cultures of RPSMC were initiated from small pieces of penile tissue excised from 3 months old Sprague Dawley rats, utilizing Dulbecco's modified Eagle medium (DMEM) with 20% fetal calf serum, at 37° C. in the presence of 5% CO2. Cells grown from the explants were then transferred to medium with 10% serum, and at the 4th to 10th passage (1:3 splits) they were utilized for the experiments, unless otherwise indicated. Alternatively, cells from the 4-8th passage stored under liquid nitrogen were used to reinitiate the cultures, and used for incubations on the following 2-4 passages. These cultures are considered to consist mainly of smooth muscle cells from the penis based on morphological and cytoimmunochemical criteria.
All experiments were conducted at 90-100% cell confluence on "Primaria" cultureware, usually 24-well plates, adding or not the inducers indicated in each experiment. When not specifically stated, the standard binary induction mix consisted of bacterial lipopolysaccharide (LPS) (10 ug/ml) and recombinant murine […] (INF-θ) (250 U/ml). Other substances to be tested were added as indicated to the serum-containing medium, and the incubation proceeded for the times indicated. The medium was always collected and stored for an indirect measurement of NO production based on the determination of its conversion into nitrites. The procedure was based on the application of the Greiss reagent, using 250 ul of the medium mixed with an equal volume of reagent. Each experimental condition was carried out in triplicate.

Male Fischer 344 rats = assay: Erectile response (maximal intracavernosal pressure) to electrical field stimulation of the cavernosal nerve; assay type: in vivo, rat; conditions: for inhibition of the erectile response: sub-optimal dose
Procedure: Male Fischer 344 rats from three age groups designated "adult" (5-month old), "old" (20 month old), and "very old" (28-32 month old) rats, were anesthetized with an intraperitoneal injection of sodium […] (pentobarbital) at 50 mg/kg. The definition of these age groups in terms of relative aging corresponds to conventional designations for the Fisher 344 strain of rats (maximal life span approximately 34-36 months; optimum breeding activity 2.5-8 months). The adult and very old rats were retired breeders whenever possible. Animals were maintained under controlled lighting and were treated according to NIH regulations. The number of animals in each group for each individual experiment is indicated in the corresponding figure.
A transversal suprapubic skin incision (5 mmm) was done to expose the penis angle and its proximal portion. The right corpora cavernosa was then cannulated with a 27-gauge needle attached to a vinyl tubing (Bolab/bb317-85 Arizona) which was connected with an ALZET^R osmotic pump (Alza Corporation, Palo Alto, Calif.). Each pump (100 or 200 ul reservoir volume, as indicated) contained a mix of E. coli lipopolysaccharide (LPS) at 1 ug/ml, recombinant rat […] (IFN-γ) at 2,500 U/ml, recombinant human tumor necrosis factor-(TNF-α) at 2,500 U/ml, and recombinant human interleukin-1β (IL-1β) at 50 ng/ml.
The needle and the tubing were fixed to the penis peripheral tissues by Mersilene* 6-0 suture and the osmotic pump was placed subcutaneously on the rat abdomen. […] The incision was closed by layer using Dexon* Plus 4-0 suture and the success of the operation was checked all throughout the experiment by observation of a normal recovery and urinary activity. These criteria were completed by verifying the absence of peripheral hematomas or inflammation when the pump was removed. Each pump delivered the inducer mix by osmotic pressure through the catheter directly into the corpora cavernosa, either at 1 ul/hr during 3 days (pump 1003D) or at 0.5 ul/hr during 14 days (pump 2002).
At the completion of each treatment rats were anesthetized as in Example 1 and the erectile response was measured by a modification of a published procedure. Briefly, the cavernosal nerve was surgically exposed and stimulated with a square pulse stimulator connected to a platinum bipolar electrode positioned on the nerve. Through a needle inserted into the cavernosa, the intracavernosal pressure was recorded with a pressure transducer connected to a recorder that was calibrated with a manometer in order to express the response in mm of mercury. The animals were reinjected every 45 min with 35 mg/kg of ketamine for the whole duration of the experiment (about 2-3 hours).
Each rat was submitted to the following sequential treatments done in duplicate: a) electrical field stimulation (EFS) at a frequency of 15 Hz for pulses of 30 sec, separated for 5 min intervals, for the voltage response curve, at […], 2.5, 5 and 10 volts, in this order; b) EFS at 10 volts with the nitric oxide synthase (NOS) inhibitor N -nitro-L-arginine methy ester (L-NAME) at 2 mg/kg, at a single dose per animal, recording 30 min. after injection. In some animals, the systemic blood pressure was measured at the beginning of the experiment, by intrafemoral cannulation and recording as above. Means and standard deviations were determined for the intracavernosal pressure values, and the statistical significance was obtained by the paired Student's t test.

[2] = supplemented with 1 or 10 ug/ml LPS, 48 hr incubation

For `N=C(N)NN` [aminoguanidine], the “effect on NOS activity in penile cytosol” value (penile NOS; 0.3 mM) is listed as “not affected” and the “isoform preference of NOS inhibition” value (cNOS, iNOS; specificity varies with the cell type) is listed as “preferential inhibitor for iNOS”.

With `COC(=O)[C@@H](N)CCCNC(=N)N[N+](=O)[O-]` [L-NAME, N-nitro-L-arginine methyl ester] the “inhibition of NOS activity in penile cytosol” value (penile NOS; 2 mM) was 60-70%, the inhibition at 2000 µM ([1]; Rattus norvegicus, 2 mM, RPSMC treated with standard induction mix, read-out: inhibition of nitrite release) was no more than 85% and the “fraction of maximal intracavernosal pressure remaining after L-NAME” value (Male Fischer 344 rats; adult rats treated with inducers, L-NAME 2 mg/kg, EFS 10 volts) was 39%. The “fraction of maximal intracavernosal pressure remaining after L-NAME” value (Male Fischer 344 rats; adult rats without inducer treatment (separate study)) was 62%, the “fraction of maximal intracavernosal pressure remaining after L-NAME” value (Male Fischer 344 rats; old rats treated with inducers, L-NAME 2 mg/kg, EFS 10 volts) was 18% and the “fraction of maximal intracavernosal pressure remaining after L-NAME” value (Male Fischer 344 rats; old rats without inducer treatment (separate study)) was 30%. The “inhibition of the erectile response” value (Male Fischer 344 rats; non-respondent rats after 14 days inducer treatment) was “normal”, the “inhibition of the erectile response” value (Male Fischer 344 rats; respondent animals after 14 days inducer treatment, three age groups) was “over 95%” and the “fraction of maximal intracavernosal pressure remaining after L-NAME” value (Male Fischer 344 rats; very old rats treated with inducers, L-NAME 2 mg/kg, EFS 10 volts) was 28%. For the same molecule, the “fraction of maximal intracavernosal pressure remaining after L-NAME” value (Male Fischer 344 rats; very old rats without inducer treatment (separate study)) was 23%.

In the case of “IL-1β: recombinant human interleukin-1 β”, the “effectiveness compared with 500 U/ml INF-θ” value ([1]; 5 ng/ml with 10 ug/ml LPS, 48 hr) is reported as “slightly more effective”.

In the case of `N=C(NCCC[C@H](N)C(=O)O)N[N+](=O)[O-]` [L-nitroarginine], the “potency as inhibitor of cNOS relative to iNOS” value (cNOS, iNOS) is listed as 1000 fold.

With TNF-α the “effect on nitrite production” value ([1]; up to 500 u/ml, presence or absence of LPS, 48 hr) was “did not have any effect”.

B1: INF-θ: recombinant murine interferon-θ (in vitro); recombinant rat interferon-θ (IFN-γ) in vivo (protein, UniProt P01580 23-155, looked up)
Interferon gamma: HGTVIESLESLNNYFNSSGIDVEEKSLFLDIWRNWQKDGDMKILQSQIISFYLRLFEVLKDNQAISNNISVIESHLITTFFSNSKAKKDAFMSIAKFEVNNPQVQRQAFNELIRVVHQLLPESSLRKRKRSRC
modifications: rat IFN-gamma used in vivo
With B1 the “nitrites in culture medium, maximum” value ([1]; 50 to 500 U/ml, absence of LPS, 48 hr incubation) was no more than 45 µM, the “induction relative to the basal level” value [1, 2] was roughly 20 fold and the “nitrites in culture medium” value [1, 2] was “up to 120 uM”.
